Measured values reported in ChEMBL document CHEMBL5442168, “ASAP - In vitro liver microsomal stability” (2024).
Values joined by “and” are separate entries in the source; they are usually repeats but may differ in a detail not shown here. Equal entries are not always repeated.

Assays:
[1] = (§1) Mouse liver microsomal stability of compound in microsomal protein, PBS buffer pH 7.4, NADPH, glucose-6-phosphate and glucose-6-phosphate dehydrogenase media. Aliquotes were taken at 5 time points and after stopping the reaction, supernatants were analyzed using HPLC coupled with a tandem mass spectrometer. The elimination constant, half-life, and intrinsic clearance are determined as results using linear regression analysis. The assay has been performed by Enamine biological services, Bienta Ltd.The protocol is publicly available: dx.doi.org/10.17504/protocols.io.5qpvokdb9l4o/v1; format: ADME, microsomes, Microsome; details: for half-life / microsomal CLint: liver microsomes; for CLint / Remaining / Remaining (without cofactor) / T1/2: microsomes
[2] = as §1, with “Human” for “Mouse”; format: ADME, microsomes, Microsome; details: for Remaining / Remaining (without cofactor) / CLint / T1/2: microsomes; for half-life / microsomal CLint: liver microsomes
For Remaining (without cofactor) in this document: time not given here.
For Remaining in this document: time not given here.

half-life [1] | microsomal CLint [1] | CLint [1] | Remaining [1] | Remaining (without cofactor) [1] | T1/2 [1] | Remaining [2] | Remaining (without cofactor) [2] | half-life [2] | microsomal CLint [2] | CLint [2] | T1/2 [2] | Structure (SMILES)
36.5 min | 46 µL/min/mg | 23 µL/min/mg | 47% and 69% | 100% and 97% | 71.6 min | 25% and 0% | 101% and 94% |  |  |  |  | CNC(=O)c1cc2c(N[C@@H](c3ccc4c(c3)S(=O)(=O)CCC4)C(C)C)ncnc2[nH]1
40 min | 42 µL/min/mg |  | 49% | 95% |  | 47% | 93% | 35.9 min | 46 µL/min/mg |  |  | CNCc1cc(-c2cc3c(N[C@@H](c4ccc5c(c4)S(=O)(=O)NCC5)C(C)C)ncnc3[nH]2)co1
4.3 min | 390 µL/min/mg |  | 1% | 103% |  | 2% | 116% | 6.6 min | 251 µL/min/mg |  |  | Cc1nn(C)cc1-c1cc2c(N[C@@H](c3ccc4c(c3)S(=O)(=O)CCC4)C(C)C)ncnc2[nH]1
5.4 min | 311 µL/min/mg |  | 1% | 90% |  | 0% | 101% | 1.8 min | 935 µL/min/mg |  |  | CC(C)[C@H](Nc1ncnc2[nH]c(-c3cnn(C)c3C#N)cc12)c1ccc2c(c1)S(=O)(=O)CCC2
65.5 min | 26 µL/min/mg |  | 66% | 99% |  | 33% | 95% | 26.2 min | 64 µL/min/mg |  |  | CCNC(=O)c1cc2c(N[C@@H](c3ccc4c(c3)S(=O)(=O)CCO4)C(C)C)ncnc2[nH]1
104 min | 16 µL/min/mg |  | 80% | 104% |  | 43% | 102% | 35.4 min | 47 µL/min/mg |  |  | CC(C)[C@H](Nc1ncnc2[nH]c(-c3cnn(CC(N)=O)c3)cc12)c1ccc2c(c1)OCCO2
32.2 min | 52 µL/min/mg | 54 µL/min/mg | 41% and 35% | 108% and 101% | 30.9 min |  | 110% and 95% |  |  | 57 µL/min/mg and 133 µL/min/mg | 29.4 min and 12.6 min | CNCc1cc(-c2cc3c(N[C@@H](c4ccc5c(c4)S(=O)(=O)CCC5)C(C)C)ncnc3[nH]2)co1
30.5 min | 55 µL/min/mg |  | 43% | 112% |  | 23% | 92% | 21.1 min | 79 µL/min/mg |  |  | CNC(=O)c1cc2c(N[C@@H](c3ccc4c(c3)OCCO4)C(C)C)ncnc2[nH]1
19 min | 88 µL/min/mg |  | 20% | 95% |  | 27% | 113% | 21.2 min | 79 µL/min/mg |  |  | CNC(=O)c1c[nH]c2ncnc(N[C@@H](c3ccc4c(c3)OCCO4)C(C)C)c12
8.1 min | 207 µL/min/mg |  | 3% | 104% |  | 37% | 92% | 29.5 min | 57 µL/min/mg |  |  | CC(C)[C@H](Nc1ncnc2[nH]ccc12)c1ccc2c(c1)S(=O)(=O)CCC2
39.5 min | 42 µL/min/mg |  | 50% | 102% |  | 90% | 112% | 320 min | 5 µL/min/mg |  |  | CC(C)[C@H](Nc1ncnc2[nH]cc(C(=O)NC3CC3)c12)c1ccc2c(c1)S(=O)(=O)CCC2
6.1 min | 272 µL/min/mg |  | 1% | 112% |  | 1% | 104% | 2.6 min | 635 µL/min/mg |  |  | CC(C)[C@@H](Nc1ncnc2[nH]c(-c3cncc(S(C)(=O)=O)c3)cc12)c1ccc2c(c1)S(=O)(=O)CCC2
8.7 min | 192 µL/min/mg | 113 µL/min/mg |  | 92% and 108% | 14.7 min | 11% and 17% | 104% and 94% | 12.8 min | 131 µL/min/mg | 108 µL/min/mg | 15.4 min | CNC(=O)c1c[nH]c2ncnc(N[C@@H](c3ccc4c(c3)S(=O)(=O)CCC4)C(C)C)c12

Further lines, the compound ahead of its results:

Structure (SMILES) | half-life [1] | microsomal CLint [1] | CLint [1] | Remaining [1] | Remaining (without cofactor) [1] | T1/2 [1] | Remaining [2] | Remaining (without cofactor) [2] | half-life [2] | microsomal CLint [2] | CLint [2] | T1/2 [2]
Cn1ncc(-c2cc3c(N[C@@H](c4ccc5c(n4)OCCO5)C(C)(C)C)ncnc3[nH]2)c1C#N | 8 min | 209 µL/min/mg | 188 µL/min/mg and 226 µL/min/mg | 4% and 5% and 2% | 101% and 106% and 94% | 8.9 min and 7.4 min |  | 91% and 108% and 85% |  |  |  | 
COc1ccc([C@@H](Cc2nnn[nH]2)NC(=O)c2ncnc3[nH]ccc23)cc1 | 4400 min |  |  | 96% | 93% |  | 86% | 110% | 314 min | 5 µL/min/mg |  | 
CC(C)[C@@H](Nc1ncnc2[nH]cc(C(N)=O)c12)c1ccc2c(c1)OCCO2 | 11.7 min | 142 µL/min/mg |  | 9% | 98% |  | 9% | 110% | 11.7 min | 143 µL/min/mg |  | 
CC(C)[C@@H](Nc1ncnc(N)c1Cl)c1ccc2c(c1)S(=O)(=O)CCC2 | 8.2 min | 204 µL/min/mg |  | 4% | 102% |  | 27% | 101% | 21 min | 79 µL/min/mg |  | 
COc1ccc([C@@H](NC(=O)c2[nH]cnc3nccc2-3)C(C)c2nnn[nH]2)cc1 (some centres not stated) | 2880 min | 1 µL/min/mg |  | 99% | 92% |  | 92% | 103% | 799 min | 2 µL/min/mg |  | 
COc1ccc([C@@H](CC(=O)O)NC(=O)c2ncnc3[nH]ccc23)cc1 | 686 min | 2 µL/min/mg |  | 94% | 96% |  | 87% | 88% | 240 min | 7 µL/min/mg |  | 
C[C@@H](C(=O)O)[C@@H](NC(=O)c1ncnc2[nH]ccc12)c1ccc(Br)cc1 | 433 min | 4 µL/min/mg |  | 94% | 109% |  | 103% | 110% | 338 min | 5 µL/min/mg |  | 
CC(C)[C@H](Nc1ncnc2[nH]ccc12)c1ccc2c(c1)NC(=O)CO2 | 45.1 min | 37 µL/min/mg |  | 54% | 89% |  | 86% | 95% | 160 min | 10 µL/min/mg |  | 
CC(C)[C@H](Nc1ncnc2[nH]c(-c3cnn(C)c3C#N)cc12)c1ccc2c(n1)NC(=O)CO2 | 12.8 min | 131 µL/min/mg |  | 12% | 85% |  | 10% | 92% | 12.2 min | 137 µL/min/mg |  | 
CC(C)[C@H](Nc1ncnc2[nH]c(-c3cnn(C)c3C#N)cc12)c1ccc2c(c1)OCCO2 | 6.5 min | 257 µL/min/mg |  | 2% | 113% |  | 1% | 103% | 2.4 min | 706 µL/min/mg |  | 
CC(C)[C@@H](Nc1ncnc2[nH]ccc12)c1ccc2c(c1)NC(=O)CO2 | 21.4 min | 78 µL/min/mg | 80 µL/min/mg | 27% and 26% | 93% and 110% | 20.9 min | 73% and 56% | 105% and 92% | 79 min | 21 µL/min/mg | 31 µL/min/mg | 54.3 min
Cn1ncc(-c2cc3c(N[C@@H](c4ccc5c(c4)OCCO5)C(C)(C)C)ncnc3[nH]2)c1C#N | 8.4 min | 199 µL/min/mg |  | 4% | 100% |  | 22% | 109% | 19.6 min | 85 µL/min/mg |  | 
COc1ccc2c(c1)CCN(c1ncnc3[nH]ccc13)[C@H]2C(C)C | 5.2 min | 321 µL/min/mg |  | 1% | 83% |  | 38% | 103% | 27.8 min | 60 µL/min/mg |  | 
C[C@H](C(=O)O)[C@@H](NC(=O)c1ncnc2[nH]ccc12)c1ccc(Br)cc1 | 380 min | 4 µL/min/mg |  | 111.226% | 100.245% |  | 92.211% | 101.611% | 574 min | 3 µL/min/mg |  | 
